Source: US20230310377A1, “METHODS OF TREATING LYSOSOMAL STORAGE DISEASES AND METHODS RELATED THERETO” (RECURSION PHARMACEUTICALS, INC., priority 2020, published 2023)

How the values were obtained:
Type in all cases: cell-based
[1] = tested on: Sandhoff (HEXB) disease and Tay-Sachs (HEXA) disease patient fibroblasts; assay: GM2 ganglioside accumulation (immunofluorescence) in Sandhoff and Tay-Sachs patient fibroblasts; conditions: Homo sapiens, Fibroblast
Protocol: (§1) Healthy, Sandhoff (HEXB) disease, and Tay-Sachs (HEXA) disease patient fibroblasts were plated and treated with ruboxistaurin mesylate twice over 17 days. At day 0 cells were seeded. On day 5 the media was changed and initial dose of the compound was delivered. On day 10 the media was changed again and the second dose of the compound was delivered. On day 17 the cells were fixed, immunoflourescence-labeled, and imaged for GM2 (see FIG. 1). […] FIGS. 2A-1 and 3A depict the dose response for two separate experiments. FIGS. 2B-1 and 3B depict mean fluorescence or mean aggregate count for each experiment±SEM of technical replicates, combining 3-5 patient lines for each group. n=12-40 images from two well replicates imaged at 4-sites per well for each line at each dose. Data in each panel represents n=1 experiment performed. FIGS. 2C and 3C depict nuclei per image from the same image sets.
(§2) The same experiment was performed for each of sotrastaurin, enzastaurin, LY2090314, AZD1080, and AZD2858. FIG. 2A-2 depicts the dose response for sotrastaurin. FIG. 2A-3 depicts the dose response for enzastaurin.
EC50 calculations were based on GM2 aggregate counts (not mean fluorescence).
The leftmost concentration in all graphs is DMSO control.

[2] = tested on: Sandhoff (HEXB) disease patient fibroblasts; assay: GM2 ganglioside accumulation in Sandhoff (HEXB) patient fibroblasts; conditions: Homo sapiens, Fibroblast, read-out: GM2 ganglioside ED50 for HEXB
Protocol: as §1, §2

[3] = tested on: Tay-Sachs (HEXA) disease patient fibroblasts; assay: GM2 ganglioside accumulation in Tay-Sachs (HEXA) patient fibroblasts; conditions: Homo sapiens, Fibroblast, read-out: GM2 ganglioside ED50 for HEXA
Protocol: as §1, §2

[4] = tested on: Sandhoff (HEXB) disease and Tay-Sachs (HEXA) disease patient fibroblasts; assay: Mean cytoplasmic autofluorescence in patient fibroblasts; conditions: Homo sapiens, Fibroblast, experimentally determined, read-out: autofluorescence ED50
Protocol: as §1
FIGS. 2D-1 and 2D-2 depict mean cytoplasmic autofluorescence for ruboxistaurin and sotrastaurin, respectively.

[5] = GM2 aggregate counts (not mean fluorescence), Expmts 1936 and 1925, read-out: ED50 based on GM2 aggregate counts
[6] = experimentally determined, patient fibroblasts, read-out: GM2 ganglioside ED50

| SMILES | EC50 [1, 5] | EC50 [1, 6] | also measured |
| --- | --- | --- | --- |
| N#Cc1ccc2[nH]c(O)c(-c3ccc(CN4CCOCC4)cn3)c2c1 [AZD1080] | 1590 nM | – | – |
| Cn1cc(C2=C(c3cn(C4CCN(Cc5ccccn5)CC4)c4ccccc34)C(=O)NC2=O)c2ccccc21 [Enzastaurin] | – | – | EC50 [2]: ~550 nM; EC50 [3]: ~265 nM |
| O=C1NC(=O)C(c2cnc3ccccn23)=C1c1cn2c3c(cc(F)cc13)CN(C(=O)N1CCCCC1)CC2 [LY2090314] | 8.76 nM | – | – |
| CN(C)C[C@@H]1CCn2cc(c3ccccc32)C2=C(C(=O)NC2=O)c2cn(c3ccccc23)CCO1 [Ruboxistaurin, (18S)-18-[(dimethylamino)methyl]-17-oxa-4,14,21-triazahexacyclo[19.6.1.17,14.02,6.08,13.022,27]nonacosa-1(28),2(6),7(29),8,10,12,22,24,26-nonaene-3,5-dione] | – | ~300 nM | EC50 [4]: ~250 nM |
| CN1CCN(c2nc(C3=C(c4c[nH]c5ccccc45)C(=O)NC3=O)c3ccccc3n2)CC1 [Sotrastaurin] | – | ~90 nM | – |
